The results in this text go back to patent US11452730B2, “Applications of desogestrel in the preparation of breast cancer ER-negative Ah receptor-positive products” (SHANGHAI JIAO TONG UNIVERSITY, priority 2015, dated 2022).

Common to all, as to assay type: cell-based
Experiment [1] has as its system ER-negative Ah receptor-positive MDA-MB-468 breast cancer cells. As to the kind of experiment: CellTiter-Glo luminescent cell viability assay, MDA-MB-468 96-well drug screening plate. Conditions: Homo sapiens, 72 hours. The procedure:
RKO cells, LoVo cells, and MDA-MB-468 ductal breast cancer cells were handled as described above, and RKO 96-well cell culture plates, 96-well LoVo cell culture plates, and 96-well MDA-MB-468 cell culture plates were obtained, respectively. The complete medium for ER-negative Ah receptor-positive MDA-MB-468 breast cancer cells was Leibovitz's L-15 (a live product), Cat #11415064, with a cells/well density of 12000. a) DMSO was used to dilute the analyte desogestrel to 20 mM for use. b) 79 μL of the 20 mM analyte prepared in step a) was added to the first well in the first row of the dilution plate, and then 54 μL of DMSO solution was added to the second through ninth wells of the first row. 25 μL of solution was aspirated from the first to the second well, and after mixing well 25 μL of solution was aspirated from the second to the third well, and this was repeated until the 9th well in order to ensure that 3.16 dilution of the medication would be carried out one-by-one. b) 95 μl of cell-specific complete medium was added to the working plate, each medication to 9 wells. […] The final concentrations (μM) of the analyte drug in wells 2-10 in FIG. 1 are, in order: 100, 31.64557, 10.01442, 3.16912, 1.002886, 0.317369, 0.100433, 0.031783, 0.010058; c) 100 μl of CellTiter-Glo reagent (prepared as described in 1 above) was added to all drug screening plates and mixed evenly. d) It was thoroughly oscillated in a 96-well microplate oscillator for 2 minutes to allow the cells to undergo full lysis. e) It was stored away from light at room temperature for 15 minutes before carrying out luminescent signal detection to ensure signal stability. f) An EnSpire multi-function plate reader was used at 570 nm to read the luminescent signals.
A general note: Cellular ATP, detected with luciferase, serves as a proxy for viable cell number.

In experiment [2] the test system is BT-474 ductal breast cancer cells. As to the kind of experiment: CellTiter-Glo luminescent cell viability assay, BT-474 cells (same method). Conditions: Homo sapiens, Table 1. The source says: Ductal breast cancer cells BT-474, complete medium basis of RPMI-1640 (a live product), Cat #A1049101, with a cells/well density of 4,000. The same method was used to test desogestrel's action on the IC50 value of BT-474 ductal breast cancer cells; results are shown in Table 1.

Experiment [3] deals with RKO colon cancer cells. The experiment can be described thus: CellTiter-Glo luminescent cell viability assay, RKO 96-well drug screening plate. The following applies: 72 hours. As to the method:
(§1) In example 1, CELLTITER-GLO was used to test desogestrel for colon cancer RKO cells, LoVo cells, and MDA-MB-468 ductal breast cancer cells were handled as described above, and RKO 96-well cell culture plates, 96-well LoVo cell culture plates, and 96-well MDA-MB-468 cell culture plates were obtained, respectively. The complete medium for RKO cells was DMEM (a live product), Cat #11995081, with a cells/well density of 12000. a) DMSO was used to dilute the analyte desogestrel to 20 mM for use. b) 79 μL of the 20 mM analyte prepared in step a) was added to the first well in the first row of the dilution plate, and then 54 μL of DMSO solution was added to the second through ninth wells of the first row. 25 μL of solution was aspirated from the first to the second well, and after mixing well 25 μL of solution was aspirated from the second to the third well, and this was repeated until the 9th well in order to ensure that 3.16 dilution of the medication would be carried out one-by-one. b) 95 μl of cell-specific complete medium was added to the working plate, each medication to 9 wells. […] The final concentrations (μM) of the analyte drug in wells 2-10 in FIG. 1 are, in order: 100, 31.64557, 10.01442, 3.16912, 1.002886, 0.317369, 0.100433, 0.031783, 0.010058; a) Before testing, the RKO 96-well drug screening plate and the LoVo 96-well drug screen plate described in 3 above were stabilized to room temperature for 20-30 minutes. c) 100 μl of CellTiter-Glo reagent (prepared as described in 1 above) was added to all drug screening plates and mixed evenly. d) It was thoroughly oscillated in a 96-well microplate oscillator for 2 minutes to allow the cells to undergo full lysis. e) It was stored away from light at room temperature for 15 minutes before carrying out luminescent signal detection to ensure signal stability. f) An EnSpire multi-function plate reader was used at 570 nm to read the luminescent signals.

In experiment [4] the test system is LoVo colon cancer cells. As to the kind of experiment: CellTiter-Glo luminescent cell viability assay, LoVo 96-well drug screening plate. The following applies: Homo sapiens, 72 hours. The procedure: as §1, with “for LoVo” for “for RKO”, “was MEM” for “was DMEM”, “Cat #10370021,” for “Cat #11995081,”, “of 8000.” for “of 12000.”

For orientation: EC50 means the concentration that produces a half-maximal response. Lower therefore signals a more potent agent. Broadly, the IC50 is the concentration needed to halve the response being measured.

Like-named read-outs stand apart in the source and are kept apart here.

Regarding `C#C[C@]1(O)CC[C@H]2[C@@H]3CCC4=CCCC[C@@H]4[C@H]3C(=C)C[C@@]21CC` [desogestrel], the EC50 in experiment [1] (FIG. 4, ER-negative Ah receptor-positive breast cancer, MDA-MB-468 plate) turned out to be 11.3 µM; in experiment [3] (FIG. 2, colon cancer, RKO 96-well drug screening plate) it was 136 µM; in experiment [4] (FIG. 3, colon cancer, LoVo 96-well drug screening plate), 26.3 µM. Besides, the IC50 in experiment [1] (FIG. 4, ER-negative Ah receptor-positive breast cancer, MDA-MB-468 plate, read-out: IC50) is 12.5 µM; in experiment [1] (MDA-MB-468 cells, Table 1, read-out: IC50 value) it was 12.5 µM; in experiment [2], not below 100 µM; in experiment [3] (FIG. 2, colon cancer, RKO 96-well drug screening plate, read-out: IC50), 32.1 µM; in experiment [3] (Homo sapiens, RKO cells, Table 1, read-out: IC50 value) it was 26.2 µM; in experiment [4] (FIG. 3, colon cancer, LoVo 96-well drug screening plate, read-out: IC50), 26.2 µM. The IC50 in experiment [4] (LoVo cells, Table 1, read-out: IC50 value) worked out at 32.1 µM.
